Experimental data published in PubChem BioAssay AID330 (DTP/NCI, 2004).
Where “and” joins values, the source holds several entries; their conditions need not be identical. Equal entries are not always repeated. Toxic doses and inconclusive results are not listed. How the source made its calls: active means survival T/C of 150% or more; inactive means T/C below 125% in these data.

Test system: P388 leukemia ip, CD2F1 mice, survival T/C
Test: NCI In Vivo Anticancer Drug Screen. Data for tumor model P388 Leukemia (intraperitoneal) in CD2F1 (CDF1) mice
Details: endpoint: median survival time, higher = longer survival
Method: The antitumor activity of compounds was measured in mice bearing transplantable tumors. Survival or tumor size were measured and the results are expressed as the measurement made in the treated group (T) divided by the measurement made in the vehicle treated control group (C). The tumor model used in this assay is P388 Leukemia (intraperitoneal) in CD2F1 (CDF1) mice

Measured: T/C

COc1nc2c(nnn2C2OC(CO)C(O)C(O)C2O)c(=O)[nH]1 (stereo unspecified)
inactive: dose: 60.0 mg/kg/injection, schedule: Q01DX005 (ip), vehicle: saline 97 % of control | dose: 120.0 mg/kg/injection, schedule: Q01DX005 (ip), vehicle: saline 99 % of control | dose: 240.0 mg/kg/injection, schedule: Q01DX005 (ip), vehicle: saline 100 % of control

Cc1oc(-c2ccccc2)nc1C(N)=O
inactive: dose: 50.0 mg/kg/injection, schedule: Q01DX009 (ip), vehicle: saline with Tween-80 106 % of control and 89 % of control and 95 % of control | dose: 100.0 mg/kg/injection, schedule: Q01DX009 (ip), vehicle: saline with Tween-80 101 % of control and 91 % of control and 96 % of control | dose: 200.0 mg/kg/injection, schedule: Q01DX009 (ip), vehicle: saline with Tween-80 99 % of control and 100 % of control
